Where “and” joins values, the source holds several entries; their conditions need not be identical. Equal values may be shown once. Where a name gives a salt, the structure may show the parent alone.
Key:
[1] = Stability in buffers of the kinetic assays; format: physicochemical; settings: in words
Text: Human recombinant active MMP-2 and MMP-7, and the catalytic domains of MMP-3 and MMP-14/MT1-MMP were purchased from EMD Chemicals, Inc. (San Diego, Calif., USA); human recombinant catalytic domains of MMP-1, MMP-8, and MMP-9 were purchased from Enzo Life Sciences, Inc. (Farmingdale, N.Y., USA); human recombinant active ADAM9 and ADAM10 were purchased from R&D Systems (Minneapolis, Minn., USA). Fluorogenic substrates MOCAc-Pro-Leu-Gly-Leu-A2pr(Dnp)-Ala-Arg-NH2 (for MMP-2, MMP-7, MMP-9 and MMP-14) and MOCAc-Arg-Pro-Lys-Pro-Val-Glu-Nva-Trp-Arg-Lys(Dnp)-NH2 (for MMP-3) were purchased from Peptides International (Louisville, Ky., USA); Mca-KPLGL-Dpa-AR-NH2 (for MMP-1, MMP-8 and ADAM10) and Mca-PLAQAV-Dpa-RSSSR-NH2 (for ADAM9) were purchased from R&D Systems (Minneapolis, Minn., USA). […] Inhibitor stock solutions (10 mM) were prepared fresh in DMSO before enzyme inhibition assays. We followed the same methodology for enzyme inhibition studies as reported by Page-McCaw et al. (Nat. Rev. Mol. Cell Biol. 2007, 8, 221-233). Enzyme inhibition studies were carried out using a Cary Eclipse fluorescence spectrophotometer (Varian, Walnut Creek, Calif., USA). Compounds 4, 5, 6 and 7 were stable in the buffers that were used in the kinetic assays.

MMP-7 = MMP-7 (Homo sapiens (Human), UniProt P09237); experiment: Enzyme inhibition studies, MMP-7; format: biochemical
Chain of MMP-7 (P09237 95-267): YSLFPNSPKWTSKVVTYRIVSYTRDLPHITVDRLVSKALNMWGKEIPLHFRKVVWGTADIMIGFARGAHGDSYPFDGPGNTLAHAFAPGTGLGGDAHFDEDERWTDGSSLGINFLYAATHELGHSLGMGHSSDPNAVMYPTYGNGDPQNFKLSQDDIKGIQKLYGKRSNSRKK

[2] = Water solubility (filtrate of saturated aqueous solution, UPLC-MRM)
ADAM10 = ADAM10 (Homo sapiens (Human), UniProt O14672); experiment: Enzyme inhibition studies, ADAM10; format: biochemical; settings: at 100 μM
Chain of ADAM10 (O14672 214-672): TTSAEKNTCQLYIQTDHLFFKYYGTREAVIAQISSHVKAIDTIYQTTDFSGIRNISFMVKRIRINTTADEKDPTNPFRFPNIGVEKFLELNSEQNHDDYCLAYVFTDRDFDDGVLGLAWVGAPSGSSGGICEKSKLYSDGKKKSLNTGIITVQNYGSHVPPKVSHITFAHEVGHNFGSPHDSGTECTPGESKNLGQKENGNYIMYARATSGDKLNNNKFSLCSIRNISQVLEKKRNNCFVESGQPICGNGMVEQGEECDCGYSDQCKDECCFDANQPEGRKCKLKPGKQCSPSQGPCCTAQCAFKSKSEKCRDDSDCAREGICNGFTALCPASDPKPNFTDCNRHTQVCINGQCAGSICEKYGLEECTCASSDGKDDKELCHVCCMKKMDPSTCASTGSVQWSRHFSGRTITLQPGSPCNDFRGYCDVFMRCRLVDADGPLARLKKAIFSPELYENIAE

ADAM9 = ADAM9 (Homo sapiens (Human), UniProt Q13443); experiment: Enzyme inhibition studies, ADAM9; format: biochemical; settings: at 100 μM
Chain of ADAM9 (Q13443 206-697): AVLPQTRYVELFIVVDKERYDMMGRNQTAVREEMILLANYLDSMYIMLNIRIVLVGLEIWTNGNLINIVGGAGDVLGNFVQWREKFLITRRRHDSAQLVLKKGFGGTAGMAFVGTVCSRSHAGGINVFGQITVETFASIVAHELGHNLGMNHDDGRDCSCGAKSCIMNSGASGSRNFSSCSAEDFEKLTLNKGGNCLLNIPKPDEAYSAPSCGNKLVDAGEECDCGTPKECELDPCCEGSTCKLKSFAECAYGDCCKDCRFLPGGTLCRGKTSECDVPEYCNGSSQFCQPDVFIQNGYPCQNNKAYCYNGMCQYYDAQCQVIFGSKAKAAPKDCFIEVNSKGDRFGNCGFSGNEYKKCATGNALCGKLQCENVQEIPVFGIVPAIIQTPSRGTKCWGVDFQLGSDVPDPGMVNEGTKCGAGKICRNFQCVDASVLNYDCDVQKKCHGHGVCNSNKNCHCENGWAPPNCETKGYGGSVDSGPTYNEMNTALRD

MMP-1 = MMP-1 (Homo sapiens (Human), UniProt P03956); experiment: Enzyme inhibition studies, MMP-1 catalytic domain; format: biochemical
Chain of MMP-1 (P03956 98-276): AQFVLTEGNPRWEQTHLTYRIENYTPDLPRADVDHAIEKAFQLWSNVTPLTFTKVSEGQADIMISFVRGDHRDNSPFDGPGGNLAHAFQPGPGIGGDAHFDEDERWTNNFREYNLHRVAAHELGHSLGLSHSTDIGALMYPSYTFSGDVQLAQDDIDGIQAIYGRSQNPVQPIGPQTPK

MMP-14 = MMP-14 (Homo sapiens (Human), UniProt P50281); experiment: Enzyme inhibition studies, MMP-14 catalytic domain; format: biochemical
[3] = Pharmacokinetics and brain distribution after single iv dose
Experimental: Mice (male CD-1, 6-7 weeks old, ˜30 g body weight, specific pathogen free) were purchased from Charles River Laboratories, Inc. (Wilmington, Mass., USA).
Samples were analyzed by ultraperformance liquid chromatography (UPLC)/(+)electrospray ionization (ESI)-multiple-reaction monitoring (MRM) with a reversed phase C18 column (Acclaim® RSLC 120 C18, 2.2 μm, 120 Å, 2.1×100 mm, Dionex, Sunnyvale, Calif., USA).
Quantification of the compounds in plasma and brain was obtained using peak-area ratios of the compounds to the internal standard, and the linear-regression parameters obtained from the calibration curves.

MMP-3 = MMP-3 (Homo sapiens (Human), UniProt P08254); experiment: Enzyme inhibition studies, MMP-3 catalytic domain; format: biochemical
Chain of MMP-3 (P08254 100-272): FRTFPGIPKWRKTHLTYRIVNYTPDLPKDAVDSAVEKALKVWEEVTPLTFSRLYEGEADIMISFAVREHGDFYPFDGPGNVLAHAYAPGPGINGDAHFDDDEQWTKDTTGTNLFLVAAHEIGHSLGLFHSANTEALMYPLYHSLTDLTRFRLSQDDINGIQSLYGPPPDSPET

MMP-9 [4] = target: T1, MMP-9 (Homo sapiens (Human), UniProt P14780); experiment: Enzyme inhibition studies, MMP-9 catalytic domain; format: biochemical; settings: read-out: MMP-9 Ki
T1 sequence (P14780 107-444): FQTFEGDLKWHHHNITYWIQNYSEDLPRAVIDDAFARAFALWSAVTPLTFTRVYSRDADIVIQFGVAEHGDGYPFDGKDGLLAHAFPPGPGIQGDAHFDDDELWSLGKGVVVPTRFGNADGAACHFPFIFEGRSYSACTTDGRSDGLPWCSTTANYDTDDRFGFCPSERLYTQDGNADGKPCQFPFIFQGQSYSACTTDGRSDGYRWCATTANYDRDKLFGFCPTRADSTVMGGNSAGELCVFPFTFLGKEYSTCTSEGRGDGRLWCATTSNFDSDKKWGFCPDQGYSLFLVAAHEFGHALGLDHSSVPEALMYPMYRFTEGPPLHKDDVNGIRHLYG

MMP-9 [5] = target: T1, MMP-9; settings: literature / previously reported; cited from earlier work
MMP-2 = MMP-2 (Homo sapiens (Human), UniProt P08253); settings: literature / previously reported; cited from earlier work
Chain of MMP-2 (P08253 110-660): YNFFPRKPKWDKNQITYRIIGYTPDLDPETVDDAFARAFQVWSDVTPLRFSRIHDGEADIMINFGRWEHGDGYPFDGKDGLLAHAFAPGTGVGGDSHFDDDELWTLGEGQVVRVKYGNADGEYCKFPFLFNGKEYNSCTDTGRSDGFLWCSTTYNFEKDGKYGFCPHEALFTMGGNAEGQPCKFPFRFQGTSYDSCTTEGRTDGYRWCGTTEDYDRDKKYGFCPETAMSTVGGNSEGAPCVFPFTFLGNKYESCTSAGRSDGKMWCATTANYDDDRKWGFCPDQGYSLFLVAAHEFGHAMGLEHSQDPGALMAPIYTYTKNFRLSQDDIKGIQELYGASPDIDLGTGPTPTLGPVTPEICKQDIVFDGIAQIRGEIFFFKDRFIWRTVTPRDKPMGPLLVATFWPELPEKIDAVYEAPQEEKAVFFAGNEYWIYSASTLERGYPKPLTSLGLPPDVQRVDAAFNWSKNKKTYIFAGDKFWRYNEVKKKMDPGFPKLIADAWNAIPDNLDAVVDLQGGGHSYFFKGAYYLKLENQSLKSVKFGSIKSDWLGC

[6] = 2 min after 5 mg/kg single iv, mice, HCl salt
[7] = male, CD-1, mouse, in vivo, 5 mg/kg
[8] = male, CD-1, mouse, in vivo, iv, 5 mg/kg
[9] = plasma, 5 mg/kg single iv, mice

## N=C(N)Nc1ccc(Oc2ccc(S(=O)(=O)CC3CS3)cc2)cc1 (stereo not shown) [Compound 7, 1-(4-(4-((Thiiran-2-ylmethyl)sulfonyl)phenoxy)phenyl)guanidine HCl salt]
[1]
  stability in the buffers used in the kinetic assays: stable
MMP-7
  inhibition at 100 µM: 4%
[2]
  Aq. solubility: 32 mg/mL
[2]; thermodynamic from solid
  solubility: 32 mg/mL
ADAM10
  inhibition at 100 µM: 25%
ADAM9
  inhibition at 100 µM: 14%
MMP-1
  inhibition at 100 µM: 4%
MMP-14
  Ki: 40 ± 2 nM
[3]; 5 mg/kg single iv, mice
  time brain levels above Ki for MMP-2: 120 min
  time brain levels above Ki for MMP-9: 30 min
  time plasma levels above Ki for MMP-2: 90 min
  time plasma levels above Ki for MMP-9: 60 min
[3]; [6]
  Brain concentration: 0.577±0.560 pmol/mg tissue
  Plasma concentration: 12600 ± 10900 nM
[3]; 5 min after 5 mg/kg single iv, mice
  Brain concentration: 0.476 ± 0.470 pmol/mg tissue
[3]; 10 min after 5 mg/kg single iv, mice
  Brain concentration: 0.216 ± 0.071 pmol/mg tissue
[3]; 30 min after 5 mg/kg single iv, mice
  Brain concentration: 0.117 ± 0.024 pmol/mg tissue
[3]; 60 min after 5 mg/kg single iv, mice
  Brain concentration: 0.0228 ± 0.0033 pmol/mg tissue
[3]; 90 min after 5 mg/kg single iv, mice
  Brain concentration: 0.0409 ± 0.0155 pmol/mg tissue
[3]; 120 min after 5 mg/kg single iv, mice
  Brain concentration: 0.0222 ± 0.0072 pmol/mg tissue
[3]; 240 min after 5 mg/kg single iv, mice
  Brain concentration: 0.0161 ± 0.0035 pmol/mg tissue
[3]; brain, 5 mg/kg single iv, mice
  AUC0-last: 14.3 pmol·min/mg
  AUC0-∞: 17.4 pmol·min/mg
  t1/2α: 47 min
  t1/2β: 133 min
[3]; in words
  crossing of the blood-brain barrier: cross the blood-brain barrier
[3]; [7]
  concentration at 2 min: 12600 ± 10900 nM
  concentration at 5 min: 4370 ± 2630 nM
  concentration at 10 min: 3920 ± 780 nM
  concentration at 30 min: 482 ± 229 nM
  concentration at 60 min: 119 ± 51 nM
  concentration at 90 min: 22 ± 8 nM
  concentration at 120 min: 6.3 ± 4.9 nM
  concentration at 240 min: 3.2 ± 2.66 nM
[3]; [8]
  AUC(0-inf): 2.13 µM·h
  AUC(0-t): 2.13 µM·h
  Kp: 0.136
  Vd: 1.08 L/kg
  clearance: 107 mL/min/kg
[3]; [9]
  CL: 107 mL/min/kg
  t1/2α: 5.22 min
  t1/2β: 64.2 min
MMP-3
  Ki: 19000 ± 1000 nM

## COC(=O)Nc1ccc(Oc2ccc(S(=O)(=O)CC3CS3)cc2)cc1 (stereo not shown) [ND-380]
MMP-9 [4]
  Ki: 180 ± 30 nM

## TIMP-1: tissue inhibitor of metalloproteinase 1, protein inhibitor of MMPs
MMP-9 [5]
  residence time bound to MMP-9: 8 min
MMP-2
  residence time bound to MMP-2: 7 min and 6.9 min

Source: patent US9951035B2, “Selective matrix metalloproteinase inhibitors” (University of Notre Dame du Lac, priority 2014, dated 2018)
